In the Kinase Knowledgebase extract (Sharma et al. 2016):

target: EGFR (UniProt P00533)
Sequence (P00533 whole entry, looked up): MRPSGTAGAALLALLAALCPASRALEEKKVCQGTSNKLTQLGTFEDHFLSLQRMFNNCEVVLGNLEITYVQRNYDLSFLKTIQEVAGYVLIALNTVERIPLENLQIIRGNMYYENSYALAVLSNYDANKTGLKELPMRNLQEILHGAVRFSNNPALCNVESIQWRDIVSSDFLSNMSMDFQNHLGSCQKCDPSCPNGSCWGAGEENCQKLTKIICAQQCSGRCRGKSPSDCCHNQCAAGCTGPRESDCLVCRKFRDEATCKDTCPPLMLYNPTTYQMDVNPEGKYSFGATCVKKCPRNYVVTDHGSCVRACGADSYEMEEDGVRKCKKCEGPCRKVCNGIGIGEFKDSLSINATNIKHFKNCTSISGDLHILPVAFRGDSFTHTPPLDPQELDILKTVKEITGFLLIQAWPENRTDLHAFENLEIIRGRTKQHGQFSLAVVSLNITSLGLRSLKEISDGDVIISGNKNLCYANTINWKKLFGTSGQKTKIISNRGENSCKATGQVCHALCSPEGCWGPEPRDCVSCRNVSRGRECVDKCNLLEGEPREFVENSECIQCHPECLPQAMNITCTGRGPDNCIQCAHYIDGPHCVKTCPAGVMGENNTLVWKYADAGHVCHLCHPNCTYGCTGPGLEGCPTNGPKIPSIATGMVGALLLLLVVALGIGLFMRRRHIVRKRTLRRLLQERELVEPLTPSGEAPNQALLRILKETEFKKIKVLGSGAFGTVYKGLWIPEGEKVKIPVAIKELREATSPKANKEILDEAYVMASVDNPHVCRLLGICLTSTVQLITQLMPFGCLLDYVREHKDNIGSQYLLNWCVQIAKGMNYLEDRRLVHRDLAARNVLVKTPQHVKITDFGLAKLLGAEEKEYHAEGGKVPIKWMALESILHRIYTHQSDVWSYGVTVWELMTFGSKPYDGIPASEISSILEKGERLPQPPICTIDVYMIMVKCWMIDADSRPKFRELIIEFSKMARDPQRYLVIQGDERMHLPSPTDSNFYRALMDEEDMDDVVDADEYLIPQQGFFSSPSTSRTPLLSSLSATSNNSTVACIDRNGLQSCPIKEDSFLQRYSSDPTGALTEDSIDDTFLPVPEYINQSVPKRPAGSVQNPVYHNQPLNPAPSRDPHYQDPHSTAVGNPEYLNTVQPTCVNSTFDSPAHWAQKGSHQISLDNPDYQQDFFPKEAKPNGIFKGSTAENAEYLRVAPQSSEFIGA

Row | IC50 [nM] | SMILES
1 | 463 | COc1cc2nc(N)nc(Nc3cccc(Br)c3)c2cc1OC
2 | 16300 | Cc1[nH]c2ncnc(Nc3cccc(C(=O)O)c3)c2c1C
3 | 27 | Cc1[nH]c2ncnc(Nc3cccc(Br)c3)c2c1C
4 | > 10000 | COc1cc2nc(C)nc(Nc3cccc(Br)c3)c2cc1OC
5 | < 5 | Nc1ccc(-c2cc3c(Nc4cccc(Cl)c4)ncnc3[nH]2)cc1
6 | < 5 | Nc1cccc(-c2cc3c(Nc4cccc(Cl)c4)ncnc3[nH]2)c1
7 | < 5 | Oc1cccc(-c2cc3c(Nc4cccc(Cl)c4)ncnc3[nH]2)c1
8 | 10 | Cc1c(-c2ccccc2)[nH]c2ncnc(Nc3cccc(Cl)c3)c12
9 | 84 | Clc1cccc(Nc2ncnc3[nH]nc(Nc4cccc(Cl)c4)c23)c1
10 | 1250 | Cc1[nH]c2ncnc(Nc3cccc(O)c3)c2c1C

Further lines, the compound ahead of its results:

Row | SMILES | IC50 [nM]
11 | Oc1ccc(-c2cc3c(Nc4cccc(Cl)c4)ncnc3[nH]2)cc1 | < 5
12 | Brc1cccc(Nc2nccc3ccccc23)c1 | > 100000
13 | Brc1cccc(Nc2ccnc3ccccc23)c1 | 5500
14 | CN(C)c1ncc2cc(-c3c(Cl)cccc3Cl)c(=O)n(C)c2n1 | 50000
15 | CCN(CC)CCOc1ccc(Nc2ncc3cc(-c4c(Cl)cccc4Cl)c(NC(=O)NC(C)(C)C)nc3n2)cc1 | 24
16 | Cn1c(=O)c(-c2c(Cl)cccc2Cl)cc2cnc(N)nc21 | 5600
17 | CCOC(=O)c1ccc(-c2cc3c(Nc4cccc(Cl)c4)ncnc3[nH]2)cc1 | < 5
18 | Brc1cccc(Nc2ncnc3ccccc23)c1 | 27
19 | O=C(O)c1ccc(-c2cc3c(Nc4cccc(Cl)c4)ncnc3[nH]2)cc1 | < 5
